The values below come from patent publication US20250281433A1, “NOVEL DERIVATIVE COMPOUND HAVING BIPHENYL GROUP INTRODUCED INTO AMINO-ALKANOIC ACID AND ANTI-INFLAMMATORY COMPOSITION COMPRISING SAME” (AMTIXBIO CO., LTD., priority 2020, published 2025).

The subject of test [1] is IL-6 production in RAW264.7 cells. The test is described as follows: LPS-induced IL-6 production in RAW264.7 cells (ELISA). Type of test: cell-based, mouse. To be noted: for avg / 1 well / 2 well / avg (%): Table 2; for avg / 1 well / 2 well: IL-6 production after LPS; for avg: average of wells; for 1 well: replicate well 1; for 2 well: replicate well 2; for avg (%): relative to LPS (100%). The protocol: The inhibitory effect on induced IL-6 cytokine production was analyzed. RAW264.7 cells (obtained from the Korean Cell Line Bank) were seeded at a density of 5×10^5 cells/well in a 12-well plate and stabilized in a CO2 incubator at 37° C. with 5% carbon dioxide and saturated humidity. After 24 hours of incubation, the compounds of the present invention were prepared in DMEM at concentrations of 0 μg/mL or 8 μg/mL and pre-treated for 30 minutes. Next, lipopolysaccharide (LPS, Sigma-Aldrich, Cat No. L2887) was treated to a concentration of 1 μg/mL to induce an inflammatory response for 24 hours. Subsequently, mouse IL-6 ELISA kit (Labiskoma, Cat No. K0331230P) and mouse TNF-α ELISA kit (Labiskoma, Cat No. K0331186P) were used according to the manufacturer's instructions, and absorbance was measured. FK506 (FK-506 monohydrate, manufacturer: MilliporeSigma, product number: F4679, U.S.A) was used as a control substance.
After inducing inflammation as described in (1) and (2) above, the supernatant was collected, and the quantification of IL-6 in the supernatant was performed using the IL-6 ELISA kit (Mouse IL-6 ELISA Kit, pink-ONE, manufactured by Komabiotech, Product No. K0331230P) according to the manufacturer's instructions. Specifically, the amount of IL-6 in the supernatant was quantified according to the ELISA kit protocol, and the absorbance was measured at OD 450 nm using a microplate reader (Multiskan Sky, manufactured by Thermo Fisher Scientific). […] In Table 1 to Table 3, FIG. 1, and FIG. 2, the relative values of IL-6 generated after pretreatment with the compounds of the present invention were expressed as a percentage relative to the IL-6 production (100%) induced by LPS, TNF-α, or IFN-β treatment.
A general note: An ELISA detects its analyte on a solid surface through an enzyme-linked reagent.

In test [2] the test system is psoriasis symptoms induced by Aldara cream in BALB/c mice. Briefly: Aldara cream-induced mouse psoriasis model: skin lesions / PASI score. The test is classed as in vivo. As to conditions: topical 150 μl for 4 days from 4th day, Compound 51 1%, Betamethasone 0.05%, versus Veh. The protocol:
(§1) After dissolving the test substance (Compound 51 of the present invention) using DMSO (Dimethyl sulfoxide, Sigma, Cat No. 472301), an appropriate concentration was prepared with PBS (HyClone, Cat No. SH30028.02). The transdermal test substance was prepared by dissolving the test substance in 100% ethanol (Medchem, Cat No. HY-13571). Betamethasone dipropionate (Sigma, Cat No. D1756, Lot No. BCBW7684), a positive control, was dissolved in DMSO, and PEG400 (Sigma, Cat. No. 06855) and 30% ethanol (Daejung, Cat. No. 4023-4100) were added to the mixture obtained above. The same vehicle was used for the negative control in the same way as the positive control specimen preparation.
BALB/c mice (purchased through JA BIO, 27 males, 8 weeks old) were acclimatized for one week. After the mice were anesthetized with isoflurane 3 days before the application of Aldara cream, the hair on the back (3×3 cm) was removed using a clipper. The remaining hair was completely removed by leaving the hair removal cream for 1 minute. The mice were left for 72 hours to heal the wounds. To induce psoriasis, Aldera Cream (5% Imiquimod, Dong-A ST) 62.5 mg was applied at the same time point (AM 10:00) once/day 7 times, and 150 μl of test substance or positive control was applied from the 4th day at the same time point (PM 14:00) for 4 days. The composition of each test group was as follows. a) Con: Normal+excipient application group: 8 animals; b) Veh: Aldara cream+excipient application group: 8 animals; c) Beta: Aldara+Betamethasone 0.05% applied group: 8 animals; and d) Compound 51 1%: Aldara+Compound 51 1% application group: 3 animals. The autopsy proceeded in a non-fasting state, and the dorsal skin was removed from each mouse, rapidly frozen in liquid nitrogen, and stored at −80° C. before for the subsequent experiments.
After taking pictures on the 0th, 4th, and 8th days to measure the skin index values, they were visually observed and recorded to measure the degree of skin lesions on the dorsal area. The condition of psoriasis skin lesions in each group was scored according to the evaluation index (erythema, skin thickness, dead skin cells) as None (0), Weak (1), Moderate (2), Severe (3), Very Severe (4) and set the score, and by summing up the scores of the three items, an evaluation score between a minimum of 0 and a maximum of 12 was calculated. […] After taking pictures in all groups on the 0th, 4th and 8th days, the evaluation indexes (erythema, skin thickness, and dead skin cells) of the psoriasis skin lesions in each group were graphed.

For test [3] the test system is unchanged. Briefly: Aldara cream-induced mouse psoriasis model: evaluation of scratching. The test is classed as in vivo. As to conditions: 8th day; topical; Compound 51 1%, Betamethasone 0.05%; versus Veh. The protocol:
as §1
(§2) BALB/c mice (purchased through JA BIO, 27 males, 8 weeks old) were acclimatized for one week. After the mice were anesthetized with isoflurane 3 days before the application of Aldara cream, the hair on the back (3×3 cm) was removed using a clipper. The remaining hair was completely removed by leaving the hair removal cream for 1 minute. The mice were left for 72 hours to heal the wounds. To induce psoriasis, Aldera Cream (5% Imiquimod, Dong-A ST) 62.5 mg was applied at the same time point (AM 10:00) once/day 7 times, and 150 μl of test substance or positive control was applied from the 4th day at the same time point (PM 14:00) for 4 days. […]

Test [4] relates to psoriasis-related cytokine genes IL-17A, IL-17F, IL-23A (p19), IL-12A (p35), IL-12B (p40), IL-1β. The test is described as follows: Aldara cream-induced mouse psoriasis model: qRT-PCR of dorsal skin. As to conditions: dorsal skin RNA, normalized to 18s rRNA; topical; Compound 51 1%, Betamethasone 0.05%; versus Veh. The test is classed as in vivo. The protocol:
as §1, §2
On the technique in general: In qPCR the cycle at which signal appears reflects the starting amount.

Test [5] relates to TSLP in HaCaT keratinocytes. As to conditions: 8 μg/ml, 1 h pre-treatment, TNF-α 100 ng/ml 24 h; compared to the control group FK506. As for the experimental part: (§3) HaCaT keratinocytes, a human skin keratinocyte cell line (obtained from the Korean Cell Line Bank), were seeded in a 12-well plate at a density of 1×10^5 cells per well and cultured for at least 12 hours in a 37° C. humidified incubator containing 5% carbon dioxide and saturated water vapor. After pre-treatment with the compound 77 of the present invention (0 μg/ml or 8 μg/ml) or the immunosuppressant FK506 (FK-506 monohydrate, manufacturer: MilliporeSigma product number: F4679, USA) as a control for 1 hour, TNF-α (Tumor Necrosis Factor-α human, manufacturer: MilliporeSigma) was treated for 24 hours as an inflammatory response inducer at a concentration of 100 ng/ml. Next, the supernatant was obtained and TSLP and IL-6 ELISA (Human TSLP and IL-6 ELISA Kit, pink-ONE, manufacturer: Komabiotech) each was performed. Specifically, the contents of TSLP and IL-6 in the supernatant were quantified according to the protocol of the ELISA kit with the supernatant, and absorbance was measured at a wavelength of 450 nm using a microplate reader (Multiskan Sky, manufacturer: Thermo Fisher Scientific, product number: 51119600DP).

Test [6] concerns interleukin-6 in HaCaT keratinocytes. As to conditions: 8 μg/ml, 1 h pre-treatment, TNF-α 100 ng/ml 24 h; compared to the control group FK506. As for the experimental part:
as §3

For `CCCC(NC)C(=O)NCc1ccc(-c2ccc(Cl)c(Cl)c2)cc1.Cl` (racemic) [Compound 51, (R)/(S)—N-((3′,4′-dichloro-[1,1′-biphenyl]-4-yl)methyl)-2-(methylamino)pentanamide hydrochloride], in test [1] (compound at 2 μg/ml), the avg amounted to 2615.50, the 1 well was 2815.00, the 2 well turned out to be 2416.00 and the “avg (%)” value was 56.11%. Moreover, in test [1] (compound at 4 μg/ml), the avg was 586.95, the 1 well came to 669.30, the 2 well amounted to 504.60 and the “avg (%)” value was 12.59%. In addition, in test [2] (8th day), the “skin lesions (pictures, visual)” value is listed as “visually improved”. Besides, in test [2] (p<0.001), the “PASI Score” value was “significantly decreased”. The “pruritus (scratching counts, 30 minutes)” value in test [3] was “tendency to decrease pruritus”. Besides, in test [4], the “psoriasis-related cytokine genes (IL-17A, IL-17F, IL-23A (p19), IL-12A (p35), IL-12B (p40), IL-1β) expression” value is recorded as “significantly reduced”.

With `CCCC(N)C(=O)NCCc1ccc(-c2ccc(C(F)(F)F)cc2)cc1.Cl` (racemic) [Compound 77, (R)/(S)-2-amino-N-(2-(4′-(trifluoromethyl)-[1,1′-biphenyl]-4-yl)ethyl)pentanamide hydrochloride], the “IL-6” value in test [1] (Table 1, LPS 1 μg/mL 24 h, compound 77 at 8 μg/ml, FK506 concentration not given) was 191.20 pg/mL. The “IL-6 (%)” value in test [1] (Table 1, relative to IL-6 production induced by LPS (100%), compound 77 at 8 μg/ml, FK506 concentration not given) is 13.19%. The “Relative amount of IL-6 compared to LPS induction (%)” value in test [1] (Table 3, LPS 1 μg/mL 24 h, compounds at 8 μg/mL (FIG. 1), LPS alone = 100%) stood at 5%. Further, in test [5], the “amount of TSLP” value is recorded as “significantly reduced”. Besides, in test [6], the “amount of interleukin-6” value was “significantly reduced”.
